Measured values taken from patent publication US20160220574A1, “NSAID AND SIGMA RECEPTOR LIGAND COMBINATIONS” (LABORATORIOS DEL DR. ESTEVE, S.A., priority 2013, published 2016).
Read-outs that look alike come from different tables or passages of the source.

Tests used:
[1] = tested on: mechanical allodynia of the post-operative pain model in rats; test: Mechanical allodynia (von Frey filaments) in the post-operative pain model (plantar incision) in rats; type: in vivo; details: for doses producing significant effect, Sigma antagonist alone: BD1063 alone 20, 40 and 80 mg/kg, compound 63.HCl alone 10, 20, 40 and 80 mg/kg
Protocol: The induction of anesthesia in rats was performed with 3% isofluran for veterinary use, employing an Ohmeda vaporizer and an anesthesia chamber. Anesthesia was kept during the surgical operation by a tube which directs the isofluran vapors to the animal's snout. Once the rats were anesthetized, they were laid down in a prone position and their right hind paws were cleaned out with alcohol. Then, a skin incision in the hindpaw of about 10 mm was made by means of a scalpel, starting about 5 mm from the heel and extending toward the toes. Fascia was located and by means of curve scissors muscle was elevated and a longitudinal incision of about 5 mm was made, thus the muscle origin and insertion remained intact. The skin of the paw was stitched with a suturing stitch with breaded silk (3.0) and the wound was cleaned out with povidone. The assessment was performed 30 minutes after the administration of product and always 4 hours after the plantar incision. The analysis was carried out evaluating the mechanical allodynia. It was tested using von Frey filaments: Animals were placed in methacrylate cylinders on an elevated surface, with metallic mesh floor perforated in order to apply the filaments. […] The animal's response to pain was manifested by the withdrawal of the paw as a consequence of the painful stimulus caused by a filament.

σ1 receptors = details: rodent brain membranes and human neuroblastoma cells, cited from earlier work
D2 receptors = details: rodent brain membranes and human neuroblastoma cells; compared with haloperidol; cited from earlier work
sigma-1 receptors = details: both in experimental animals and human cells; cited from earlier work

## Cc1ccc(-c2cc(C(F)(F)F)nn2-c2ccc(S(N)(=O)=O)cc2)cc1 [Celecoxib]
[1]; dose 0.625 mg/kg
  Mean of the porcentage of analgesia in the post-operative pain model, Compounds alone: 13%
[1]; rats, NSAID alone 0.625 mg/kg
  effect of NSAID alone: no significant effect

## Cc1c(N(C)CS(=O)(=O)O)c(=O)n(-c2ccccc2)n1C [Metamizole]
[1]; dose 0.156 mg/kg
  Mean of the porcentage of analgesia in the post-operative pain model, Compounds alone: 14%
[1]; rats, NSAID alone 0.156 mg/kg
  effect of NSAID alone: no significant effect

## OC1(c2ccc(Cl)cc2)CCNCC1 [metabolite I, 4-(4-chlorophenyl)-4-hydroxypiperidine]
σ1 receptors
  affinity for σ1 (sigma-1) receptors: less affinity than haloperidol
D2 receptors
  affinity for D2 receptors: no affinity

## CN1CCN(CCc2ccc(Cl)c(Cl)c2)CC1 [BD1063, 1-[2-(3,4-dichlorophenyl)ethyl]-4-methylpiperazine]
[1]; Rattus norvegicus, rats, compound alone, administered 3.5 hours after surgery, assessed 30 minutes after administration, 4 hours after plantar incision, read-out: ED50 (dose-dependent effect), Sigma antagonist alone
  ED50: 56.2 mg/kg
[1]; rats
  doses producing significant effect, Sigma antagonist alone: significant effect only at 40 and 80 mg/kg

## COc1ccc2cc([C@H](C)C(=O)O)ccc2c1 [Naproxen]
[1]; dose 0.312 mg/kg
  Mean of the porcentage of analgesia in the post-operative pain model, Compounds alone: 13%
[1]; rats, NSAID alone 0.312 mg/kg
  effect of NSAID alone: no significant effect

## OC(CCCN1CCC(O)(c2ccc(Cl)cc2)CC1)c1ccc(F)cc1 (centres unmarked) [metabolite II, 4-(4-chlorophenyl)-[…]-(4-fluorophenyl)-4-hydroxy-1-piperidinebutanol]
σ1 receptors
  affinity for σ1 (sigma-1) receptors: less affinity than haloperidol
σ1 receptors; listed as Reduced haloperidol
  affinity for σ1 (sigma-1) receptors: high affinity (in the low nanomolar range)
D2 receptors
  affinity for D2 receptors: much lower
sigma-1 receptors
  blockade of sigma-1 receptors: irreversible blockade

## CC(=O)Nc1ccc(O)cc1 [Paracetamol]
[1]; dose 20 mg/kg
  Mean of the porcentage of analgesia in the post-operative pain model, Compounds alone: 13%
[1]; rats, NSAID alone 20 mg/kg
  effect of NSAID alone: no significant effect

## Cc1cc(OCCN2CCOCC2)nn1-c1ccc2ccccc2c1.Cl [compound 63.HCl, 4-{2-[5-Methyl-1-(naphthalen-2-yl)-1H-pyrazol-3-yloxy]ethyl}morpholine hydrochloride]
[1]; rats
  doses producing significant effect, Sigma antagonist alone: significant effect only at 40 and 80 mg/kg
[1]; rats, compound alone (10, 20, 40 and 80 mg/kg), without sub-active dose of NSAID, 3.5 hours after surgery
  maximum effect / maximum efficacy, Sigma antagonist alone: 43%

## CC(C)Cc1ccc(C(C)C(=O)O)cc1 (centres unmarked) [Ibuprofen]
[1]; dose 0.625 mg/kg
  Mean of the porcentage of analgesia in the post-operative pain model, Compounds alone: 16%
[1]; rats, NSAID alone 0.625 mg/kg
  effect of NSAID alone: no significant effect

## Cc1cc(OCCN2CCOCC2)nn1-c1ccc2ccccc2c1 [compound 63, 4-{2-[5-Methyl-1-(naphthalen-2-yl)-1H-pyrazol-3-yloxy]ethyl}morpholine]
[1]; dose 10 mg/kg
  Mean of the porcentage of analgesia in the post-operative pain model, Compounds alone: 2%
[1]; dose 20 mg/kg
  Mean of the porcentage of analgesia in the post-operative pain model, Compounds alone: 15%
[1]; dose 40 mg/kg
  Mean of the porcentage of analgesia in the post-operative pain model, Compounds alone: 43%
[1]; dose 80 mg/kg
  Mean of the porcentage of analgesia in the post-operative pain model, Compounds alone: 41%

## O=C(O)Cc1ccccc1Nc1c(Cl)cccc1Cl [Diclofenac]
[1]; dose 0.625 mg/kg
  Mean of the porcentage of analgesia in the post-operative pain model, Compounds alone: 13%
[1]; rats, NSAID alone 0.312 mg/kg
  effect of NSAID alone: no significant effect
